Experimental data taken from US20080038335A1, “METHOD, FORMULATION, AND USE THEREOF FOR IMPROVED ORAL ABSORPTION OF PHARMACEUTICALS OR NUTRIENTS” (SHANGHAI TIANBO BIOTECHNOLOGY CO., LTD., priority 2005, published 2008).

Legend:
[1] = oral, Dong et al. 2003; cited from earlier work
[2] = Solubility in 90% ethanol (Chinese Pharmacopeia method); assay type: physicochemical; settings: 25° C.±2° C., observed at 30 minutes
Experimental: The solution is observed at 30 minutes, and it is defined as complete dissolution when no solute particles or droplets are noticed.
• 1. Dissolve ginsenoside Rg3 in ethanol. • 100 mg test ginsenoside Rg3 was added to 100 ml of 90% ethanol at 25° C.±2° C., and forcefully shaken for 30 seconds every 5 minutes. […] Preparation of Rg3 solution in ethanol. • The ginsenoside Rg3-ethanol solution is prepared according to Rg3's solubility, and this solution will be used to determine the percentage of polyoxyethylene hydrogenated castor oil in formulation. • 3. Establishment of artificial gastric and intestinal environments. • The artificial gastric and intestinal fluids are prepared in accordance to experimental example 2. • 4. Determination of the proportion of protectant polyoxyethylene hydrogenated castor oil (Cremophor RH40) in ginsenoside Rg3-ethanol solution. • Polyoxyethylene hydrogenated castor oil (Cremophor RH40) at different proportions, from 5%-90%, is added to 100 ml ginsenoside Rg3-ethanol solution, and then the mixture is subjected to artificial gastric or intestinal fluids for stability test. […] The highest proportion as determined, i.e., 50% or 175 mg is adopted for drug preparation. • 5. […]
• 1. […] The highest proportion as determined, i.e., 40% or 150 mg is adopted for drug preparation. • 5. […]

| SMILES | absorption rate from the GI tract [1] [%] | Amount completely dissolved in 100 ml 90% ethanol [2] [mg] |
| --- | --- | --- |
| CC(C)=CCC[C@](C)(O[C@@H]1O[C@H](CO[C@@H]2O[C@H](CO)[C@@H](O)[C@H](O)[C@H]2O)[C@@H](O)[C@H](O)[C@H]1O)[C@H]1CC[C@]2(C)[C@@H]1[C@H](O)C[C@@H]1[C@@]3(C)CC[C@H](O[C@@H]4O[C@H](CO)[C@@H](O)[C@H](O)[C@H]4O[C@@H]4O[C@H](CO)[C@@H](O)[C@H](O)[C@H]4O)C(C)(C)[C@@H]3CC[C@]12C [Rb1] | 1 | – |
| CC(C)=CCC[C@](C)(O[C@@H]1O[C@H](CO)[C@@H](O)[C@H](O)[C@H]1O)[C@H]1CC[C@]2(C)[C@@H]1[C@H](O)C[C@@H]1[C@@]3(C)CC[C@H](O)C(C)(C)[C@@H]3[C@@H](O[C@@H]3O[C@H](CO)[C@@H](O)[C@H](O)[C@H]3O)C[C@]12C [Rg1, ginsenoside Rg1] | 1.9 | – |
| CC(C)=CCC[C@](C)(O)[C@H]1CC[C@]2(C)[C@@H]1[C@H](O)C[C@@H]1[C@@]3(C)CC[C@H](O[C@@H]4O[C@H](CO)[C@@H](O)[C@H](O)[C@H]4O[C@@H]4O[C@H](CO)[C@@H](O)[C@H](O)[C@H]4O)C(C)(C)[C@@H]3CC[C@]12C [Rg3, ginsenoside Rg3] | – | 100 |
| CC(C)=CCC[C@](C)(O)[C@H]1CC[C@]2(C)[C@@H]1[C@H](O)C[C@@H]1[C@@]3(C)CC[C@H](O[C@@H]4O[C@H](CO)[C@@H](O)[C@H](O)[C@H]4O)C(C)(C)[C@@H]3CC[C@]12C [Rh2, ginsenoside Rh2] | 3.4 | – |
| CC(C)=CCC[C@@](C)(O)[C@H]1CC[C@]2(C)[C@@H]1[C@H](O)C[C@@H]1[C@@]3(C)CC[C@H](O)C(C)(C)[C@@H]3CC[C@]12C [aPPD, protopanoxadiol sapogenin aPPD] | – | 40 |
